Where a name gives a salt, the structure may show the parent alone.
Legend:
[1] = system: phenylquinone-induced writhing; test: phenylquinone writhing (PQW) test, analgesic activity, oral, mice; assay type: in vivo; settings: Mus musculus, fasted female white mice, phenylquinone i.p. at 23 or 30 min, ED50 for 50% of mice
Method: A standard procedure for detecting and comparing the analgesic acitivity of the compounds, for which there is good correlation with human efficacy, is the standard phenylquinone writhing (PQW) test modified from Siegmund, et al., Proc. Soc. Exp. Biol. Med. 95, 729 (1957). A test compound suspended in 1% methylcellulose was given orally to fasted (17-21 hours) female white mice, 5-20 animals per double blind test. Aqueous (0.01% phenyl-p-benzoquinone)phenylquinone was injected intraperitoneally at 23 or 30 minutes later using 0.25 ml per mouse. […] The effective analgesic dose for 50% of the mice (ED50) was calculated by the moving average method of Weil, Biometrics 8, 249 (1952).
(§1) Ideally a low ED50 dosage for PQW and a high ED50 dosage for ST (Straub Tail) is desired.

[2] = Straub Tail (ST), oral; settings: mouse, in vivo, mice, high ED50 desired
Source text: as §1
(§2) There is a close correlation between a drug's addiction liability and its ability to cause Straub tail in mice [Shemano and Wendel, Tox. Appl. Pharm., 6, 334-339 (1964)] at doses much below the LD50. […] This property is the basis of a test for detecting new narcotic antagonist drugs.

[3] = system: Straub tail induced by morphine sulfate; test: narcotic antagonist test: prevention of morphine-induced Straub tail in mice; assay type: in vivo; settings: test drug s.c. 10 min before morphine sulfate 40 mg/kg s.c., observed 20 min, fasted female CF1 S mice; for ED50: Mus musculus, sc, read-out: ED50, prevention of 90° Straub tail (narcotic antagonism)
Method: as §2
17-21 Hour fasted female CF1 S mice 5 per dose were injected subcutaneously (loose skin inside hind limb) with test drug at 0.67, 2, 6, 18, 54, and 162 mg/kg in 0.20 ml 1% Methocel® per mouse. 10 Minutes later, a dosage of 40 mg/kg (base weight) of morphine sulfate in 0.20 ml 1% Methocel® per mouse was given subcutaneously (nape of neck). The mice were observed continuously for the next 20 minutes after the first mouse of a group of 30 had received morphine. Prevention of a 90° Straub tail during this observation period was taken as indication of narcotic antagonist ability. The table below gives the results for several compounds.

[4] = system: Straub tail in mice induced by morphine; settings: Blumberg, Dayton, and Wolf 1968; cited from earlier work

SMILES	ED50 [1] [mg/kg]	ED50 [2] [mg/kg]	also measured
Oc1cccc([C@]23CC=CC[C@H]2CN(CCc2ccccc2)C3)c1 (relative stereo) [drawing 74]	19		
CN1C[C@@H]2CC=CC[C@]2(c2ccccc2)C1 (relative stereo)	32	> 162	
COc1cccc([C@]23CC=CC[C@H]2CN(CCc2ccccc2)C3)c1 (relative stereo)	26		
CN1C[C@@H]2CCCC[C@]2(c2ccccc2)C1 (relative stereo)	90	> 200	
CC1=C(C)C[C@]2(c3cccc(O)c3)CN(CC3CC3)C[C@H]2C1 (relative stereo) [Example 2, N-Cyclopropylmethyl-3a-(m-hydroxyphenyl)-5,6-dimethyl-2,3,3a,4,7,7a-trans-hexahydroisoindole]			ED50 [3]: 5.2 mg/kg
Oc1cccc([C@]23CC=CC[C@H]2CN(CCc2ccccc2)C3)c1 (relative stereo) [Example 7, N-Phenethyl-3a-(m-hydroxyphenyl)-2,3,3a,4,7,7a-cis-hexahydroisoindole]			ED50 [3]: 43 mg/kg
C=CCN1CC[C@]23c4c5ccc(O)c4O[C@H]2[C@@H](O)C=C[C@H]3[C@H]1C5 [nalorphine]			prevention of the induction of Straub tail [4]: can prevent the induction of Straub tail
C=CCN1CC[C@]23c4c5ccc(O)c4O[C@H]2C(=O)CC[C@@]3(O)[C@H]1C5 [naloxone]			prevention of the induction of Straub tail [4]: can prevent the induction of Straub tail
C=CCN1C[C@@H]2CC=CC[C@]2(c2ccccc2)C1 (relative stereo)	140	> 200	
COc1cccc([C@]23CC(C)=C(C)C[C@@H]2CN(CC2CC2)C3)c1 (relative stereo)	78	> 135	
CC(C)=CCN1CCC2(C)c3cc(O)ccc3CC1C2C (stereo not shown) [Pentazocine, reference compound]			ED50 [3]: 4 mg/kg; prevention of the induction of Straub tail [4]: can prevent the induction of Straub tail
Oc1cccc([C@]23CC=CC[C@H]2CN(CCc2ccccc2)C3)c1 (relative stereo) [Example 8, N-Phenethyl-3a-(m-hydroxyphenyl)-2,3,3a,4,7,7a-hexahydroisoindole Hydrochloride]			ED50, prevention of 90° Straub tail (narcotic antagonism) ([3]; Hydrochloride): 54 mg/kg
CC1=C(C)C[C@]2(c3cccc(O)c3)CN(CC3CC3)C[C@H]2C1 (relative stereo) [drawing 69]	120	> 162	

From patent US4042707A, “3α-Arylhydroisoindoles” (E. I. Du Pont de Nemours and Company, priority 1976, dated 1977)
